# Values quoted from earlier work as cited in patent US20090088367A1, “Treatment of Insulin Resistance/Metabolic Syndrome to Alleviate the Risks of Dementia” (Burnham Institute For Medical Research, priority 2004, published 2009).
# Legend:
# [1] = tested on: neurodegeneration induced by beta-amyloid(1-40); conditions: Miguel-Hidalgo et al., Brain Res 2002
# [2] = tested on: APP/PS1 double mutant mice; conditions: transgenic mouse with mutant amyloid precursor protein and presenilin I; Tanila et al., J Neurochem 2003
# [3] = tested on: tau hyperphosphorylation; conditions: in culture; okadaic acid-induced changes; Iqbal et al., J Neurochem 2003
smiles,measurement,setting,value
"CC12CC3CC(C)(C1)CC(N)(C3)C2 [memantine, 1-amino-3,5-dimethyladamantine]",protection from intrahippocampal injection of Aβ,[1],offer protection
same,performance on behavioral tests (T-maze and Morris water maze),[2],improved performance
same,tau hyperphosphorylation,[3],reduce tau hyperphosphorylation
